Source: patent US20230304097A1, “PREDICTING CANCER RELAPSE AND TREATMENT OF CANCER DISEASES” (priority 2020, published 2023)
“Also recorded” adds a separate entry of the source.

Legend:
[1] = test system: GTML2 and GTML3 cerebellar allografts; test: Survival of Nude mice allografted with GTML cell lines after dox diet (minimal residual disease); assay type: in vivo, mouse; settings: 7 days of dox treatment
Description: Injections of tumor cells into mouse brains were performed as thoroughly described elsewhere (Cancer Cell 2016, 29: 311-323; Cancer Cell 2012, 21: 601-613) and as follows. For allograft and in vivo transplantation studies, adult Nude mice were anesthetized and cerebellar allografts generated by injection of 100,000 cells into the cerebellum. Mice were monitored until phenotypic presentation of a brain tumor, at which point they were euthanized. At sacrifice, whole brains were excised and biopsies taken for experimental procedures. PDX models used included BT084 (metastatic SHH MB established in Dr. Till Milde’s lab, Heidelberg, Germany), Med-211FH, Med-411FH (metastatic Group 3 MBs established in Dr. Jim Olson’s lab, Seattle, USA) and ICb-1572MB (metastatic Group 3 MB established in Dr. Xiaonan Li’s lab, Houston, USA) all obtained from Dr. Robert Wechsler-Reya’s lab and used as described elsewhere (Cancer Cell 2016, 29: 311-323). Orthotopic PDX growth was studied in brain and spinal cord in NSG mice that were maintained in the animal facilities at Sanford Burnham Prebys Medical Discovery Institute (SBP) and at the Sanford Consortium for Regenerative Medicine. […]
All animal experiments were conducted once. Animal survival was graphically shown as a Kaplan Meier curve, made and assessed using GraphPad Prism 7 software. The p-value for survival curves is calculated using a LogRank test.

GTML-pSOX9-GFP cells = test: FACS quantification of GFP (SOX9)-positive cells after cisplatin treatment; assay type: cell-based, mouse; settings: 24 h treatment
Description: Tumor burdened GTML;SOX9-eGFP mice were sacrificed and tumors dissociated, cells cultured as we described above. Cells were harvested, accutased and filtered with 30 µm cell strainer, then sorted for GFP-positive (SOX9) cells (488_FITC-A) and GFP-negative cell population. For cisplatin treatment experiment, cells were treated with cisplatin 24 h before cell sorting. The BD FACSMelody was used for sorting and quantifying in this experiment. MB002-pSOX9-GFP cells were dissociated using accutase and sorted for GFP expression (488_FITC-A). The BD FACSarialll was used for this experiment and it was analyzed using BD FACSDiVa version 8.0.

pre-GT20 cells = test: Cisplatin treatment of tumor sphere cultures, SOX9 staining and cell counts; assay type: cell-based, mouse; settings: pre-GTS tumor spheres, 10 µM, 72 h in culture
Description: Brains were fixed in 4% PFA and embedded in paraffin block. preGT20 sphere cultures were fixed in 4 % PFA for a minimum of 12 hours at 4° C. and then embedded in HistoGel followed by paraffin embedding. 6-7 µm sections of paraffin-embedded tissue were used for all staining. The complete protocol for the IHC was described previously (Genes & development 2010, 24: 1059-1072).
(§1) To assess cell proliferation, 10 000 cells were plated in triplicates in 96-well plate. Proliferation was measured every 24 h for five days using Resazurin colorimetric assay. The MGMT inhibitor Lomeguatrib was dissolved in DMSO and added to cells 24 h post cell plating to a final concentration of 20 µM. ThioTEPA was dissolved in DMSO and added similarly to a final concentration of 10-100 µM. Doxorubicin was dissolved in H2O and added to a final concentration of 100-120 nM. Spheres from pre-GT20 cells were treated with Cisplatin at a final concentration of 10 µM. Number of SOX9-positive cells per spheres was counted in 10 spheres in treated (Cisplatin) and untreated (DMSO) conditions. Statistical significance was calculated using a unpaired non-parametric Mann-Whitney test.

GTS cells = test: Drug treatment and proliferation assay (Resazurin/Alamar blue), recurrent tumor cells; assay type: cell-based, mouse
Description: Tumor cells (GTML, GTS and preGTS) were isolated as previously described from tumor bearing mice (Cancer Cell 2012, 21: 601-613) and cultured as neurospheres in serum-free conditions with Neurobasal (NB) media, additional B27 supplement, 100 units Penicillin and 0.1 mg/ml Streptomycin, 2 mM L-glutamine, 1:500 Antibiotic-Antimycotic, 20 ng/ml EGF and 20 ng/ml FGF-2. Human MB002 primary cell culture was obtained from Dr. Yoon Jae-Cho and cultured in serum-free conditions, 1:1 of Neurobasal Media (-vitamin A) and DMEM/F12 with Sodium Pyruvate, NEAA, HEPES, GlutaMAX, 100 units Penicillin and 0.1 mg/ml Streptomycin, B27 supplement, 20 ng/ml EGF and 20 ng/ml FGF-2, 1X LIF and 1X Heparin as previously described Clin Cancer Res 2014, 20: 912-925. Stable doxycycline-inducible SOX9wt and SOX9CPD mutant cell lines were generated as described (EMBO J 2016, 35: 2192-2212), lentiviruses were first packed in HEK293T cells by the specified pTRIPZ lentivector with the packaging plasmids, psPAX2 and pMD2.G. Supernatants containing viral particles (48 - 96 hours post transfection) were used to infect the target cells in the presence of freshly added hexadimethrine bromide ([…]). Seventy-two hours post-transfection, the cells were selected and maintained in appropriate culture medium containing puromycin (0.125 - 0.5 µg/mL).
as §1, with “The MGMT inhibitor Lomeguatrib was dissolved in DMSO and added to cells 24 h post cell plating to a final concentration of 20 µM.” left out

GTML cells = test: Drug treatment and proliferation assay (Resazurin/Alamar blue), primary tumor cells; assay type: cell-based, mouse
Description: Tumor cells (GTML, GTS and preGTS) were isolated as previously described from tumor bearing mice (Cancer Cell 2012, 21: 601-613) and cultured as neurospheres in serum-free conditions with Neurobasal (NB) media, additional B27 supplement, 100 units Penicillin and 0.1 mg/ml Streptomycin, 2 mM L-glutamine, 1:500 Antibiotic-Antimycotic, 20 ng/ml EGF and 20 ng/ml FGF-2. Human MB002 primary cell culture was obtained from Dr. Yoon Jae-Cho and cultured in serum-free conditions, 1:1 of Neurobasal Media (-vitamin A) and DMEM/F12 with Sodium Pyruvate, NEAA, HEPES, GlutaMAX, 100 units Penicillin and 0.1 mg/ml Streptomycin, B27 supplement, 20 ng/ml EGF and 20 ng/ml FGF-2, 1X LIF and 1X Heparin as previously described Clin Cancer Res 2014, 20: 912-925. […]
To assess cell proliferation, 10 000 cells were plated in triplicates in 96-well plate. Proliferation was measured every 24 h for five days using Resazurin colorimetric assay. […] Number of SOX9-positive cells per spheres was counted in 10 spheres in treated (Cisplatin) and untreated (DMSO) conditions. Statistical significance was calculated using a unpaired non-parametric Mann-Whitney test.

[2] = in children and in adults; cited from earlier work

With C[C@H]1c2cccc(O)c2C(=O)C2=C(O)[C@]3(O)C(=O)C(C(N)=O)=C(O)[C@@H](N(C)C)[C@@H]3[C@@H](O)[C@@H]21 [dox, doxycycline hyclate] the “overall survival, GTML2 allograft” value [1] was 16.5 weeks and the “overall survival, GTML3 allograft” value [1] was 9 weeks.

In the case of N.N.[Cl][Pt][Cl] [cisplatin, Cisplatin], the “number of SOX9-positive cells compared to DMSO control” value (GTML-pSOX9-GFP cells; FACS of GFP-positive cells) is reported as “increases the number of SOX9-positive cells”, the SOX9-positive cells (GTML-pSOX9-GFP cells; GFP-positive cells by FACS, increase from 2.4% (DMSO control)) is reported as 8.6% and the “cell survival and apoptotic cell death” value (pre-GT20 cells) is reported as “decreased cell survival and massive apoptotic cell death”. For the same compound, the “number of SOX9-positive cells surviving the treatment” value (pre-GT20 cells; vs DMSO) was “significant upregulation and increase in the number of SOX9-positive cells”.

For Nc1nc(OCc2cc(Br)cs2)c2[nH]cnc2n1 [Lomeguatrib], the “proliferation of GTS cells, combination with ThioTEPA” value (GTS cells; 10 µM Lomeguatrib added to ThioTEPA (10, 100 µM), 72 h) was “decreased proliferation of GTS tumor cells even further; also recorded: significantly decreases proliferation”, the “proliferation of GTS cells” value (GTS cells; 20 µM, 24, 48 and 72 h, GT20 and GT21 cell lines) was “significantly decreased proliferation” and the “proliferation of GTML cells” value (GTML cells; 20 µM, 24, 48 and 72 h, GTML3 and GTML13 cell lines) was “did not show any efficacy”.

With COc1cccc2c1C(=O)c1c(O)c3c(c(O)c1C2=O)C[C@@](O)(C(=O)CO)C[C@@H]3O[C@H]1C[C@H](N)[C@H](O)[C@H](C)O1 [doxorubicin] the “viable fGTS (forebrain recurrence) cells” value (GTS cells; 200 nM, 72 h) was “completely depleted”, the “viable hGTS (hindbrain recurrence) cells” value (GTS cells; 200 nM, 72 h) was “nearly half of the cells were still viable” and the “viable GTML cells” value (GTML cells; 200 nM, 72 h) was “nearly half of the cells were still viable”.

In the case of CC(C)[C@H](N)C(=O)OCC(CO)OCn1cnc2c(=O)nc(N)[nH]c21 (stereo partly drawn) [ValGCV, valganciclovir], the “blood brain barrier penetration” value [2] is given as “penetrates the BBB well” and the “concentration in the cerebrospinal fluid (CSF)” value [2] is given as “high concentrations”.

For COc1cc2ncnc(Nc3ccc(F)c(Cl)c3)c2cc1OCCCN1CCOCC1 [Gefitinib], the “specificity for targeting forebrain GTS cells” value (GTS cells; data not shown) was “not specific for targeting forebrain GTS cells”.
